Assay results reported in patent publication US5726159A, “Antithrombotic agents” (Eli Lilly and Company, priority 1995, dated 1998).
Structures can show the parent of a compound that is named as a salt.

What was measured:
Assay type in all cases: biochemical
Conditions in all cases: concentration required to double the clotting time
[1] = tested on: Human plasma; assay: Human plasma anticoagulation, activated partial thromboplastin time (APTT)
Procedure: (§1) Dog plasma and rat plasma is obtained from conscious mixed-breed hounds (either sex, Hazelton-LRE, Kalamazoo, Mich., U.S.A.) or from anesthetized male Sprague-Dawley rats (Harlan Sprague-Dawley, Inc., Indianapolis, Ind., U.S.A.) by venipuncture into 3.8 percent citrate. Fibrinogen is prepared from in-date ACD human blood as the fraction I-2 according to previous procedures and specifications. […] Human fibrinogen is also purchased as 98 percent pure/plasmin free from American Diagnostica, Greenwich, Conn. Coagulation reagents ACTIN, Thromboplastin, and Human plasma are from Baxter Healthcare Corp., Dade Division, Miami, Fla. Bovine thrombin from Parke-Davis ([…], Mich.) is used for coagulation assays in plasma.
(§2) Coagulation assay procedures are as previously described. […] A CoAScreener coagulation instrument (American LABor, Inc.) is used for all coagulation assay measurements. The prothrombin time (PT) is measured by adding 0.05 mL saline and 0.05 mL Thromboplastin-C reagent to 0.05 mL test plasma. The activated partial thromboplastin time (APTT) is measured by incubation of 0.05 mL test plasma with 0.05 mL Actin reagent for 120 seconds followed by 0.05 mL CaCl2 (0.02M). The thrombin time (TT) is measured by adding 0.05 mL saline and 0.05 mL thrombin (10 NIH units/mL) to 0.05 mL test plasma. The compounds of Formula I are added to human or animal plasma over a wide range of concentrations to determine prolongation effects on the APTT, PT, and TT assays. Linear extrapolations are performed to estimate the concentrations required to double the clotting time for each assay.

[2] = tested on: Human plasma; assay: Human plasma anticoagulation, thrombin time (TT)
Procedure: as §1, §2

[3] = tested on: Human plasma; assay: Human plasma anticoagulation, prothrombin time (PT)
Procedure: as §1, §2

Compound	2x Clotting time APTT [1]	2x Clotting time TT [2]	2x Clotting time PT [3]
N=C(N)N1CC=C(CNC(=O)[C@@H]2CCCN2C(=O)[C@@H](CC2CCCCC2)NCC(=O)O)CC1 [Example 70, HO2 CCH2 -D-Cha-Pro-4-NHCH2 -1-amidino-3,4-dehydro-piperidine.HCl]	160 ng/mL	2 ng/mL	180 ng/mL
N=C(N)Nc1ccc(CNC(=O)[C@@H]2CCCN2C(=O)[C@@H]2NCC[C@@H]3CCCC[C@@H]32)cc1 [Example 38, D-1-Piq-Pro-p-NHCH2 C6 H4 NHC(NH)NH2.2HCl]	6,100 ng/mL	540 ng/mL	11,100 ng/mL
N=C(N)c1cccc(CCNC(=O)[C@@H]2CCCN2C(=O)[C@@H]2NCC[C@@H]3CCCC[C@@H]32)c1 [Example 29, 1-Piq-Pro-m-NHCH2 CH2 -C6 H4 C(=NH)NH2.2HCl]	9,800 ng/mL	750 ng/mL	15,800 ng/mL
Nc1ccc(CCNC(=O)[C@@H]2CCCN2C(=O)[C@H](N)Cc2ccccc2)cc1 [Example 14, D-Phe-Pro-p-NHCH2 CH2 C6 H4 NH2.HCl]		21,000 ng/mL	
CS(=O)(=O)CC(=O)N[C@H](CC1CCCCC1)C(=O)N1CCC[C@H]1C(=O)NCc1ccc(C(=N)N)cc1 [Example 92, MeSO2 CH2 CO-D-Cha-Pro-p-NHCH2 C6 H4 C(NH)NH2.HCl]	210 ng/mL	8.9 ng/mL	340 ng/mL
O=C(O)CN[C@H](CC1CCCCC1)C(=O)N1CCC[C@H]1C(=O)NCC1CCNCC1 [Example 53, HO2 CCH2 -D-Cha-Pro-4-NHCH2 -piperidine.HCl]	33,800 ng/mL	1,400 ng/mL	34,500 ng/mL
CCS(=O)(=O)N[C@H](CC1CCCCC1)C(=O)N1CCC[C@H]1C(=O)NCc1ccnc(N)c1 [Example 83, EtSO2 -D-Cha-Pro-4-NHCH2 -2-aminopyridine.HCl]	1,000 ng/mL	91 ng/mL	1,300 ng/mL
Nc1cc(CNC(=O)[C@@H]2CCCN2C(=O)[C@@H](CC2CCCCC2)NCC(=O)O)ccn1 [Example 73, HO2 CCH2 -D-Cha-Pro-4-NHCH2 -2-aminopyridine.HCl]	340 ng/mL	21 ng/mL	330 ng/mL
N=C(N)Nc1cccc(CCNC(=O)[C@@H]2CCCN2C(=O)[C@@H]2NCC[C@@H]3CCCC[C@@H]32)c1 [Example 41, D-1-Piq-Pro-m-NHCH2 CH2 C6 H4 NHC(NH)NH2.2HCl]	> 91,000 ng/mL	82,200 ng/mL	> 91,000 ng/mL
D-hPro-Pro-p-NHCH2 C6 H4 C(NH)NH2.HCl [Example 17]	370 ng/mL	26 ng/mL	400 ng/mL
N=C(N)c1ccc(CNC(=O)[C@@H]2CCCN2C(=O)[C@@H](CCC2CCCCC2)NCC(=O)O)cc1 [Example 88, HOOCCH2 -D-hCha-Pro-p-NHCH2 C6 H4 C(NH)NH2.HCl]	100 ng/mL	4 ng/mL	200 ng/mL
CCS(=O)(=O)N[C@H](Cc1ccccc1)C(=O)N1CCC[C@H]1C(=O)NCc1cccc(NC(=N)N)c1 [Example 36, EtSO2 -D-Phe-Pro-m-NHCH2 C6 H4 NHC(NH)NH2.HCl]	> 91,000 ng/mL	7,700 ng/mL	> 91,000 ng/mL
NCc1cccc(CNC(=O)[C@@H]2CCCN2C(=O)[C@H](N)Cc2ccccc2)c1 [Example 11, D-Phe-Pro-m-NHCH2 C6 H4 CH2 NH2.HCl]		8,800 ng/mL	
O=C(O)CN[C@H](CC1CCCCC1)C(=O)N1CCC[C@H]1C(=O)NCCC1CCNCC1 [Example 54, HO2 CCH2 -D-Cha-Pro-4-NHCH2 CH2 -piperidine.HCl]	3,300 ng/mL	140 ng/mL	2,200 ng/mL
O=C(O)CN[C@H](CC1CCCCC1)C(=O)N1CCC[C@H]1C(=O)NCCC1=CCNCC1 [Example 59, HO2 CCH2 -D-Cha-Pro-4-NHCH2 CH2 -3,4-dehydro-piperidine.HCl]	5,500 ng/mL	420 ng/mL	7,000 ng/mL
CCC(CC)C(=O)N[C@@H](CCC(=O)O)C(=O)N1CCC[C@H]1C(=O)NCc1ccc(C(=N)N)cc1 [Example 90, (C2 H5)2 CHCO-Glu-Pro-p-NHCH2 C6 H4 C(NH)NH2.HCl]	14,500 ng/mL	330 ng/mL	14,600 ng/mL
CCOC(=O)N[C@H](Cc1ccccc1)C(=O)N1CCC[C@H]1C(=O)NCCCCNC(=N)N [Example 3, EtOCO-D-Phe-Pro-Agm.HCl]		590 ng/mL	
CCS(=O)(=O)N[C@H](Cc1ccccc1)C(=O)N1CCC[C@H]1C(=O)NCc1cccc(C(=N)N)c1 [Example 24, EtSO2 -D-Phe-Pro-m-NHCH2 -C6 H4 C(=NH)NH2.HCl]	25,900 ng/mL	1,000 ng/mL	25,000 ng/mL
Nc1ccc(CNC(=O)[C@@H]2CCCN2C(=O)[C@H](N)Cc2ccccc2)cc1 [Example 13, D-Phe-Pro-p-NHCH2 C6 H4 NH2.HCl]		660 ng/mL	
CCS(=O)(=O)N[C@H](CC1CCCCC1)C(=O)N1CCC[C@H]1C(=O)NCCCCNC(=N)N [Example 2, EtSO2 -D-Cha-Pro-Agm.HCl]		170 ng/mL	
Nc1ccc(CNC(=O)[C@@H]2CCCN2C(=O)[C@@H](CC2CCCCC2)NCC(=O)O)cc1 [Example 62, HO2 CCH2 -D-Cha-Pro-4-NHCH2 C6 H4 NH2.HCl]		54 ng/mL	
N=C(N)NC/C=C/CNC(=O)[C@@H]1CCCN1C(=O)[C@H](N)Cc1ccccc1 (relative stereo) [Example 8, D-Phe-Pro-NHCH2 -trans-CH=CHCH2 NHC(NH)NH2.HCl]		130 ng/mL	
D-Phe-Pro-p-NHCH2 C6 H4 C(NH)NH2.HCl [Example 15]	89 ng/mL	9 ng/mL	
N=C(N)NCCCNC(=O)[C@@H]1CCCN1C(=O)[C@H](N)Cc1ccccc1 [Example 7, D-Phe-Pro-NH(CH2)3 NHC(NH)NH2.HCl]		490 ng/mL	
NC[C@H]1CC[C@H](CNC(=O)[C@@H]2CCCN2C(=O)[C@H](N)Cc2ccccc2)CC1 (relative stereo) [Example 12, D-Phe-Pro-NHCH2 -trans-4-(aminomethyl)cyclohexane.HCl]		1,700 ng/mL	
NCc1ccc(CNC(=O)[C@@H]2CCCN2C(=O)[C@H](N)Cc2ccccc2)cc1 [Example 10, D-Phe-Pro-p-NHCH2 C6 H4 CH2 NH2.HCl]		420 ng/mL	
Nc1ccc(CCNC(=O)[C@@H]2CCCN2C(=O)[C@@H](CC2CCCCC2)NCC(=O)O)cc1 [Example 63, HO2 CCH2 -D-Cha-Pro-4-NHCH2 CH2 C6 H4 NH2.HCl]		680 ng/mL	
N=C(N)NCCCCCCNC(=O)[C@@H]1CCCN1C(=O)[C@H](N)Cc1ccccc1 [Example 5, D-Phe-Pro-NH(CH2)6 NHC(NH)NH2.HCl]		30,000 ng/mL	
N=C(N)NCc1ccc(CNC(=O)[C@@H]2CCCN2C(=O)[C@H](N)Cc2ccccc2)cc1 [Example 9, D-Phe-Pro-p-NHCH2 -C6 H4 CH2 NHC(NH)NH2.2TFA]		> 91,000 ng/mL	
